Results: US10918728B2, “Compositions and methods for increasing efficiency of cardiac metabolism” (IMBRIA PHARMACEUTICALS, INC., priority 2017, dated 2021)
Blank lines part the entries; values can stand above or below the molecule they belong to.

Assay: Stability of CV-8972 in aqueous solution at different concentrations and pH
Format: physicochemical
Procedure: The stability of CV-8972 was analyzed. Aqueous samples containing CV-8972 at different concentrations and pH were incubated for various periods and analyzed.
Form A of CV-8972 were analyzed for stability in aqueous solution. Aqueous samples containing CV-8972 at different concentrations and pH were incubated for various periods and analyzed.

Retention Time 5.6 (CV-8972 purity) (2 mg/mL pH 6 (Form A), 1 hrs, PH 6.1): 97.22
Retention Time 5.6 (CV-8972 purity) (2 mg/mL pH 6 (Form A), 4 hrs, PH 6.1): 97.01
Retention Time 5.6 (CV-8972 purity) (2 mg/mL pH 6 (Form A), 6 hrs, PH 6.1): 96.51
Retention Time 5.6 (CV-8972 purity) (2 mg/mL pH 7 (Form A), 1 hrs, PH 6.8): 95.06
Retention Time 5.6 (CV-8972 purity) (2 mg/mL pH 7 (Form A), 4 hrs, PH 6.7): 93.7
Retention Time 5.6 (CV-8972 purity) (2 mg/mL pH 7 (Form A), 6 hrs, PH 6.7): 92.12
Retention Time 5.6 (CV-8972 purity) (2 mg/mL pH 7 (Form A), 22 hrs, PH 6.8): 91.07
Retention Time 5.6 (CV-8972 purity) (10 mg/mL pH 6 (Form A), 1 hrs, PH 6.8): 93.43
Retention Time 5.6 (CV-8972 purity) (10 mg/mL pH 6 (Form A), 4 hrs, PH 6.8): 91.82
Retention Time 5.6 (CV-8972 purity) (10 mg/mL pH 6 (Form A), 6 hrs, PH 6.7): 91.8
Retention Time 5.6 (CV-8972 purity) (10 mg/mL pH 6 (Form A), 22 hrs, PH 6.7): 89.66
Retention Time 5.6 (CV-8972 purity) (10 mg/mL pH 7 (Form A), 1 hrs, PH 7.2): 89.05
Retention Time 5.6 (CV-8972 purity) (10 mg/mL pH 7 (Form A), 4 hrs, PH 7.1): 86.8
Retention Time 5.6 (CV-8972 purity) (10 mg/mL pH 7 (Form A), 6 hrs, PH 7.1): 84.79
Compound: COc1ccc(CN2CCN(CCOC(=O)c3cccnc3)CC2)c(OC)c1OC.Cl.O [276-MBA-172]

Retention Time 5.6 (CV-8972 purity) (2 mg/mL pH 6 (Form B), 1 hrs, PH 6.9): 95.1
Retention Time 5.6 (CV-8972 purity) (2 mg/mL pH 6 (Form B), 4 hrs, PH 6.8): 92.45
Retention Time 5.6 (CV-8972 purity) (2 mg/mL pH 6 (Form B), 6 hrs, PH 6.8): 90.65
Retention Time 5.6 (CV-8972 purity) (2 mg/mL pH 6 (Form B), 22 hrs, PH 6.7): 89.15
Retention Time 5.6 (CV-8972 purity) (2 mg/mL pH 7 (Form B), 1 hrs, PH 6.6): 95.46
Retention Time 5.6 (CV-8972 purity) (2 mg/mL pH 7 (Form B), 4 hrs, PH 6.5): 93.92
Retention Time 5.6 (CV-8972 purity) (10 mg/mL pH 6 (Form B), 1 hrs, PH 6.1): 94.81
Retention Time 5.6 (CV-8972 purity) (10 mg/mL pH 6 (Form B), 4 hrs, PH 6): 94.69
Retention Time 5.6 (CV-8972 purity) (10 mg/mL pH 6 (Form B), 6 hrs, PH 5.9): 94.39
Retention Time 5.6 (CV-8972 purity) (10 mg/mL pH 6 (Form B), 22 hrs, PH 5.9): 93.93
Retention Time 5.6 (CV-8972 purity) (10 mg/mL pH 7 (Form B), 1 hrs, PH 7.4): 86.18
Retention Time 5.6 (CV-8972 purity) (10 mg/mL pH 7 (Form B), 4 hrs, PH 7.4): 82.36
Retention Time 5.6 (CV-8972 purity) (10 mg/mL pH 7 (Form B), 6 hrs, PH 7.3): 79.37
Compound: COc1ccc(CN2CCN(CCOC(=O)c3cccnc3)CC2)c(OC)c1OC.Cl.O [289-MBA-15-A]
